Measurements published in ChEMBL document CHEMBL3885881, “DrugMatrix”.

Species on record: Rattus norvegicus
Assay: DrugMatrix - Regimen: Daily Repeat
Assay type: toxicity, organism-based, Sprague-Dawley
Parameters: regimen Daily Repeat, gender Male, age 6-8 weeks
Conditions: in vivo, po, route oral GAVAGE, vehicle .5 % CMC; for ABSOLUTE BASOPHIL / ABSOLUTE EOSINOPHIL / ABSOLUTE LYMPHOCYTE / ABSOLUTE MONOCYTE / ABSOLUTE SEGMENTED NEUTROPHIL / BASOPHIL / EOSINOPHIL / ERYTHROCYTE COUNT / HEMATOCRIT / HEMOGLOBIN / LEUKOCYTE COUNT / LYMPHOCYTE / MEAN CORPUSCULAR HEMOGLOBIN / MEAN CORPUSCULAR HEMOGLOBIN CONCENTRATION / MEAN CORPUSCULAR VOLUME / MONOCYTE / NEUTROPHIL / NUCLEATED RED BLOOD CELLS / PLATELET COUNT: tissue Blood; for ALANINE AMINOTRANSFERASE / ALBUMIN / ALKALINE PHOSPHATASE / ASPARTATE AMINOTRANSFERASE / BLOOD UREA NITROGEN / CARBON DIOXIDE / CHLORIDE / CHOLESTEROL / CREATINE PHOSPHOKINASE / CREATININE / GLUCOSE / LACTATE DEHYDROGENASE / LIPASE / PHOSPHORUS / POTASSIUM / SODIUM / TOTAL BILIRUBIN / TOTAL PROTEIN / URIC ACID: tissue Plasma
[1] = 100 mg/kg, 72 h, dose level Low, time 3 day
[2] = 100 mg/kg, 120 h, dose level Low, time 5 day
[3] = 1500 mg/kg, 72 h, dose level High, time 3 day
[4] = 1500 mg/kg, 120 h, dose level High, time 5 day

Nc1nc2c(c(=O)[nH]1)N(C=O)C(CNc1ccc(C(=O)N[C@@H](CCC(=O)O)C(=O)O)cc1)CN2 (some centres not stated) [LEUCOVORIN]
ABSOLUTE BASOPHIL [1]: 0 CELLS/uL | ABSOLUTE EOSINOPHIL [1]: 0 CELLS/uL | ABSOLUTE LYMPHOCYTE [1]: 14793 CELLS/uL | ABSOLUTE MONOCYTE [1]: 101.33 CELLS/uL | ABSOLUTE SEGMENTED NEUTROPHIL [1]: 1572.33 CELLS/uL | BASOPHIL [1]: 0% | EOSINOPHIL [1]: 0% | ERYTHROCYTE COUNT [1]: 5.73 x10E6/uL | HEMATOCRIT [1]: 35.97% | HEMOGLOBIN [1]: 14.23 G/DL | LEUKOCYTE COUNT [1]: 16.47 x10E3/uL | LYMPHOCYTE [1]: 89.67% | MEAN CORPUSCULAR HEMOGLOBIN [1]: 24.9 pg | MEAN CORPUSCULAR HEMOGLOBIN CONCENTRATION [1]: 39.63 G/DL | MEAN CORPUSCULAR VOLUME [1]: 62.83 fL | MONOCYTE [1]: 0.67% | NEUTROPHIL [1]: 9.67% | NUCLEATED RED BLOOD CELLS [1]: 0.33 /100WBC | PLATELET COUNT [1]: 1244.67 x10E3/uL | ALANINE AMINOTRANSFERASE [1]: 62.33 u/L | ALBUMIN [1]: 4.43 G/DL | ALKALINE PHOSPHATASE [1]: 427.33 u/L | ASPARTATE AMINOTRANSFERASE [1]: 83.67 u/L | BLOOD UREA NITROGEN [1]: 16.33 mg/dL | CARBON DIOXIDE [1]: 29 mmol/L | CHLORIDE [1]: 98.67 MEQ/L | CHOLESTEROL [1]: 67 mg/dL | CREATINE PHOSPHOKINASE [1]: 289.67 u/L | CREATININE [1]: 0.22 mg/dL | GLUCOSE [1]: 142 mg/dL | LACTATE DEHYDROGENASE [1]: 152.33 u/L | LIPASE [1]: 9.33 u/L | PHOSPHORUS [1]: 14.03 mg/dL | POTASSIUM [1]: 7.04 MEQ/L | SODIUM [1]: 146.13 MEQ/L | TOTAL BILIRUBIN [1]: 0.3 mg/dL | TOTAL PROTEIN [1]: 6.1 G/DL | URIC ACID [1]: 1.77 mg/dL | ABSOLUTE BASOPHIL [2]: 0 CELLS/uL | ABSOLUTE EOSINOPHIL [2]: 60.33 CELLS/uL | ABSOLUTE LYMPHOCYTE [2]: 13263.33 CELLS/uL | ABSOLUTE MONOCYTE [2]: 23.33 CELLS/uL | ABSOLUTE SEGMENTED NEUTROPHIL [2]: 1019.67 CELLS/uL | BASOPHIL [2]: 0% | EOSINOPHIL [2]: 0.33% | ERYTHROCYTE COUNT [2]: 5.54 x10E6/uL | HEMATOCRIT [2]: 36.17% | HEMOGLOBIN [2]: 13.53 G/DL | LEUKOCYTE COUNT [2]: 14.37 x10E3/uL | LYMPHOCYTE [2]: 92.67% | MEAN CORPUSCULAR HEMOGLOBIN [2]: 24.4 pg | MEAN CORPUSCULAR HEMOGLOBIN CONCENTRATION [2]: 37.4 G/DL | MEAN CORPUSCULAR VOLUME [2]: 65.23 fL | MONOCYTE [2]: 0.33% | NEUTROPHIL [2]: 6.67% | NUCLEATED RED BLOOD CELLS [2]: 1 /100WBC | PLATELET COUNT [2]: 1225.67 x10E3/uL | ALANINE AMINOTRANSFERASE [2]: 52 u/L | ALBUMIN [2]: 4.3 G/DL | ALKALINE PHOSPHATASE [2]: 311.67 u/L | ASPARTATE AMINOTRANSFERASE [2]: 76 u/L | BLOOD UREA NITROGEN [2]: 15.33 mg/dL | CARBON DIOXIDE [2]: 26 mmol/L | CHLORIDE [2]: 102 MEQ/L | CHOLESTEROL [2]: 57.33 mg/dL | CREATINE PHOSPHOKINASE [2]: 211.67 u/L | CREATININE [2]: 0.21 mg/dL | GLUCOSE [2]: 175.67 mg/dL | LACTATE DEHYDROGENASE [2]: 113.33 u/L | LIPASE [2]: 8.67 u/L | PHOSPHORUS [2]: 12.6 mg/dL | POTASSIUM [2]: 6.61 MEQ/L | SODIUM [2]: 146.23 MEQ/L | TOTAL BILIRUBIN [2]: 0.23 mg/dL | TOTAL PROTEIN [2]: 6.1 G/DL | URIC ACID [2]: 1.7 mg/dL | ABSOLUTE BASOPHIL [3]: 0 CELLS/uL | ABSOLUTE EOSINOPHIL [3]: 0 CELLS/uL | ABSOLUTE LYMPHOCYTE [3]: 14453.33 CELLS/uL | ABSOLUTE MONOCYTE [3]: 60 CELLS/uL | ABSOLUTE SEGMENTED NEUTROPHIL [3]: 2253.33 CELLS/uL | BASOPHIL [3]: 0% | EOSINOPHIL [3]: 0% | ERYTHROCYTE COUNT [3]: 5.28 x10E6/uL | HEMATOCRIT [3]: 35.03% | HEMOGLOBIN [3]: 13.77 G/DL | LEUKOCYTE COUNT [3]: 16.77 x10E3/uL | LYMPHOCYTE [3]: 86.33% | MEAN CORPUSCULAR HEMOGLOBIN [3]: 26.07 pg | MEAN CORPUSCULAR HEMOGLOBIN CONCENTRATION [3]: 39.33 G/DL | MEAN CORPUSCULAR VOLUME [3]: 66.33 fL | MONOCYTE [3]: 0.33% | NEUTROPHIL [3]: 13.33% | NUCLEATED RED BLOOD CELLS [3]: 0 /100WBC | PLATELET COUNT [3]: 1212 x10E3/uL | ALANINE AMINOTRANSFERASE [3]: 44.33 u/L | ALBUMIN [3]: 4.3 G/DL | ALKALINE PHOSPHATASE [3]: 372.67 u/L | ASPARTATE AMINOTRANSFERASE [3]: 77.67 u/L | BLOOD UREA NITROGEN [3]: 11.33 mg/dL | CARBON DIOXIDE [3]: 32 mmol/L | CHLORIDE [3]: 102 MEQ/L | CHOLESTEROL [3]: 68.33 mg/dL | CREATINE PHOSPHOKINASE [3]: 183.67 u/L | CREATININE [3]: 0.15 mg/dL | GLUCOSE [3]: 156 mg/dL | LACTATE DEHYDROGENASE [3]: 116 u/L | LIPASE [3]: 8.67 u/L | PHOSPHORUS [3]: 13.4 mg/dL | POTASSIUM [3]: 6.98 MEQ/L | SODIUM [3]: 146.03 MEQ/L | TOTAL BILIRUBIN [3]: 0.17 mg/dL | TOTAL PROTEIN [3]: 6 G/DL | URIC ACID [3]: 1.83 mg/dL | ABSOLUTE BASOPHIL [4]: 0 CELLS/uL | ABSOLUTE EOSINOPHIL [4]: 46.33 CELLS/uL | ABSOLUTE LYMPHOCYTE [4]: 14356 CELLS/uL | ABSOLUTE MONOCYTE [4]: 200.33 CELLS/uL | ABSOLUTE SEGMENTED NEUTROPHIL [4]: 930.67 CELLS/uL | BASOPHIL [4]: 0% | EOSINOPHIL [4]: 0.33% | ERYTHROCYTE COUNT [4]: 5.73 x10E6/uL | HEMATOCRIT [4]: 35.37% | HEMOGLOBIN [4]: 14.17 G/DL | LEUKOCYTE COUNT [4]: 15.53 x10E3/uL | LYMPHOCYTE [4]: 92.33% | MEAN CORPUSCULAR HEMOGLOBIN [4]: 24.8 pg | MEAN CORPUSCULAR HEMOGLOBIN CONCENTRATION [4]: 40.07 G/DL | MEAN CORPUSCULAR VOLUME [4]: 61.77 fL | MONOCYTE [4]: 1.33% | NEUTROPHIL [4]: 6% | NUCLEATED RED BLOOD CELLS [4]: 0 /100WBC | PLATELET COUNT [4]: 1112.33 x10E3/uL | ALANINE AMINOTRANSFERASE [4]: 56.67 u/L | ALBUMIN [4]: 4.3 G/DL | ALKALINE PHOSPHATASE [4]: 387 u/L | ASPARTATE AMINOTRANSFERASE [4]: 87.33 u/L | BLOOD UREA NITROGEN [4]: 16.33 mg/dL | CARBON DIOXIDE [4]: 36 mmol/L | CHLORIDE [4]: 99.67 MEQ/L | CHOLESTEROL [4]: 57.33 mg/dL | CREATINE PHOSPHOKINASE [4]: 288.67 u/L | CREATININE [4]: 0.2 mg/dL | GLUCOSE [4]: 147 mg/dL | LACTATE DEHYDROGENASE [4]: 263.67 u/L | LIPASE [4]: 9 u/L | PHOSPHORUS [4]: 12.9 mg/dL | POTASSIUM [4]: 6.55 MEQ/L | SODIUM [4]: 145.83 MEQ/L | TOTAL BILIRUBIN [4]: 0.2 mg/dL | TOTAL PROTEIN [4]: 6.13 G/DL | URIC ACID [4]: 1.37 mg/dL
